Assays:
Type in all cases: cell-based, mouse
Arginase I = Arginase I gene expression by quantitative real-time PCR in pre-treated macrophages; details: FIG. 2
Procedure: (§1) Bone marrow derived macrophages (BMDMs): For macrophage isolation, bone marrow from 6-12 weeks old C57BL/6 mouse was used following an IACUC approved protocol. Briefly, femurs and tibia bones were isolated after removing the skeletal muscles. The bone marrow was flushed with RPMI complete medium supplemented with non-essential amino acids. A single-cell suspension of bone marrow was prepared with repeated pipetting and incubated with 20 ng/mL of mouse recombinant M-CSF (Biolegend) at 37° C. for 4 days to differentiate into macrophages.
(§2) Bone marrow derived macrophages (BMDMs) were differentiated into macrophages with M-CSF. These naïve macrophages were pre-treated with Nexturastat A (NextA) or 6-nitrobenzo[b]thiophene-1,1-dioxide (Stattic) and polarized to M2 macrophages with IL4/IL13. Pre-treatment with NextA and Stattic decreased polarization of M2 macrophages as indicated by flow cytometry.
(§3) Further validation of M2 polarization markers at gene expression levels by quantitative real-time PCR indicate that Arginase I, TGFβ, and FIZZ1, which are tumor-promoting factors, were decreased. FIG. 2, FIG. 3, and FIG. 4.

TGFβ = TGFβ gene expression by quantitative real-time PCR in pre-treated macrophages; details: FIG. 3
Procedure: as §1, §2, §3

FIZZ1 = FIZZ1 gene expression by quantitative real-time PCR in pre-treated macrophages; details: FIG. 4
Procedure: as §1, §2, §3

[1] = test system: M2 macrophages (bone marrow derived macrophages polarized with IL4/IL13); assay: M2 polarization of pre-treated BMDMs, CD206 marker by flow cytometry; details: naïve BMDMs pre-treated with compound, then polarized to M2 with IL4/IL13; FIG. 1
Procedure: as §1
Flow cytometry: Flow cytometry was performed following the protocol described previously. Knox et al., Sci Rep. 2019 Oct. 10; 9(1):14824. doi: 10.1038/s41598-019-51403-6. Briefly, mice were euthanized following the IACUC protocol, and tumor cells were processed into a single cell suspension for analysis by flow cytometry with tumor digestion buffer. The following antibodies were used to stain cell surface markers expressed by different immune cells. All the antibodies were purchased from Biolegend (San Diego, CA) unless otherwise specified. Myeloid cell surface markers are as follows: APC anti-mouse CD80 (clone 16-10A1), PE/Cy7 anti-mouse CD206 (MMR) (clone C068C2), APC/Fire™ 750 anti-mouse CD45.2 (clone 104), FITC anti-mouse H-2 (clone M1/42), Brilliant Violet 785TM anti-mouse F4/80 (clone BM8), and Alexa Fluor® 700 anti-mouse CD3 (clone 17A2). […]

O=[N+]([O-])c1ccc2c(c1)S(=O)(=O)C=C2 [Stattic, 6-nitrobenzo[b]thiophene-1,1-dioxide]
decreased: Arginase I expression level (M2 polarization marker) (Arginase I) | TGFβ expression level (M2 polarization marker) (TGFβ) | FIZZ1 expression level (M2 polarization marker) (FIZZ1) | polarization of M2 macrophages (CD206 as marker, flow cytometry) [1]

CCCCN(Cc1ccc(C(=O)NO)cc1)C(=O)Nc1ccccc1 [NextA, Nexturastat A]
decreased: Arginase I expression level (M2 polarization marker) (Arginase I) | TGFβ expression level (M2 polarization marker) (TGFβ) | FIZZ1 expression level (M2 polarization marker) (FIZZ1) | polarization of M2 macrophages (CD206 as marker, flow cytometry) [1]
